Consider seven molecules from patent US20240059695A1, “SUBSTITUTED IMIDAZO[1,5-b]PYRIDAZINE COMPOUNDS AS KINASE INHIBITORS AND USE THEREOF” (IMPACT THERAPEUTICS (SHANGHAI), INC, priority 2020, published 2024).

Read-outs that look alike come from different tables or passages of the source.

For series [1], the system named is human lung cancer NCI-H460 cell. The experiment in a line: MTT proliferation assay, NCI-H460. Type of series: cell-based. To be noted: NCI-H460, 96 h, read-out: IC50 (nM), proliferation of NCI-H460 cell. As for the experimental part: The cells were digested by trypsinase and centrifuged at 800 rpm for 5 minutes, the supernatant was discarded, and the residual was resuspended with fresh medium […]) and counted.
(§1) The cells were seeded into 96-well cell culture plate with a density of 2000/4000 cells per well and incubated overnight in a 5% CO2 incubator at 37° C. […] 5 μL diluent of each concentration was added to 120 μL of medium (25 times diluted) and mixed by shaking. The overnight cell plates were taken and the culture medium was removed, 195 μL of fresh medium was added to each well, and 5 μL of diluted medium containing the corresponding concentration of the test compound was added respectively (the final concentration of DMSO is 1%), and the culture plate was then placed in a 5% CO2 incubator at 37° C. for 4 days. After removing the original solution, 100 μL of fresh serum-free DMEM medium containing MTT (0.5 mg/mL) was added to each well, the culture was continued. […] Cell viability (%)=(ODcompound−ODbackground)/(ODDMSO−ODbackground)×100. GraphPad Prism 6.0 was used to analyze the data. The inhibitory activity of compounds on cell proliferation was plotted based on cell viability and the logarithm of compound concentration. The IC50 value was fitted by a sigmoidal dose response curve equation Y−100/(1+10^(LogC−LogIC50)), wherein C was the concentration of compound.
A general note: Tetrazolium assays rely on reduction of a dye to a coloured formazan, in cell work by metabolically active cells.

A further series concerns the target T1, ATR/ATRIP enzyme (Homo sapiens, UniProt Q13535).
T1 construct: purchased Eurofins 14-953
The experiment in a line: ATR enzyme activity experiment (HTRF). It is filed as biochemical. As to conditions: p53 substrate, 30 min room temperature, read-out: IC50 (nM), inhibitory effect on ATR kinase activity. As for the experimental part:
The mixture was centrifuged at 1000 rpm for 1 minute, and reacted at room temperature protected from light for 30 minutes. Then 5 μL of EDTA stop solution (250 mM) was added to stop the reaction.
A general note: TR-FRET usually uses a lanthanide donor and a delayed reading to cut background.

The nature of series [2]: Pharmacokinetics following single oral administration to mice. It is filed as in vivo. As to conditions: mouse, CD-1 (ICR) mice, gavage 10 mg/kg, 0.5% methylcellulose/water suspension, plasma. As for the experimental part: The compound of the present invention was formulated into a 0.5% methylcellulose/water uniform suspension, and was administered to CD-1 (ICR) mice by gavage at 10 mg/kg. Plasma samples were collected at 8 time points of 0.250, 0.500, 1.00, 2.00, 4.00, 6.00, 8.00 and 24.0 hours post-dose. Concentrations of the compound were determined by LC-MS/MS method.

Series [3] concerns human colon cancer LoVo cell. The experiment in a line: MTT proliferation assay, LoVo. It is filed as cell-based. As to conditions: Homo sapiens, LoVo, 96 h, read-out: IC50 (nM), proliferation of LoVo cell. Here is the method:
as §1, with “[…]” for “100 μL”, “viability (%)=(ODcompound−ODbackground)/ODDMSO−ODbackground)×100.” for “viability (%)=(ODcompound−ODbackground)/(ODDMSO−ODbackground)×100.”, “The IC5.0” for “The IC50”, “equation Y=100/(1+10^(LogC-LogIC50)),” for “equation Y−100/(1+10^(LogC−LogIC50)),”

By AUC(0-inf) is commonly meant the area under the concentration-time curve extrapolated to infinity. Higher therefore signals high exposure. As usually defined, the AUC(0-t) is the area under the concentration-time curve up to a stated or last time point. The low end stands for less exposure, the high end for more exposure. As a reminder, the Cmax is the highest concentration seen after dosing. As usually defined, the half-life is the time needed for the level to fall by half in the phase considered. The low end stands for rapid decline, the high end for slow decline.

T1 sequence (Q13535 whole entry): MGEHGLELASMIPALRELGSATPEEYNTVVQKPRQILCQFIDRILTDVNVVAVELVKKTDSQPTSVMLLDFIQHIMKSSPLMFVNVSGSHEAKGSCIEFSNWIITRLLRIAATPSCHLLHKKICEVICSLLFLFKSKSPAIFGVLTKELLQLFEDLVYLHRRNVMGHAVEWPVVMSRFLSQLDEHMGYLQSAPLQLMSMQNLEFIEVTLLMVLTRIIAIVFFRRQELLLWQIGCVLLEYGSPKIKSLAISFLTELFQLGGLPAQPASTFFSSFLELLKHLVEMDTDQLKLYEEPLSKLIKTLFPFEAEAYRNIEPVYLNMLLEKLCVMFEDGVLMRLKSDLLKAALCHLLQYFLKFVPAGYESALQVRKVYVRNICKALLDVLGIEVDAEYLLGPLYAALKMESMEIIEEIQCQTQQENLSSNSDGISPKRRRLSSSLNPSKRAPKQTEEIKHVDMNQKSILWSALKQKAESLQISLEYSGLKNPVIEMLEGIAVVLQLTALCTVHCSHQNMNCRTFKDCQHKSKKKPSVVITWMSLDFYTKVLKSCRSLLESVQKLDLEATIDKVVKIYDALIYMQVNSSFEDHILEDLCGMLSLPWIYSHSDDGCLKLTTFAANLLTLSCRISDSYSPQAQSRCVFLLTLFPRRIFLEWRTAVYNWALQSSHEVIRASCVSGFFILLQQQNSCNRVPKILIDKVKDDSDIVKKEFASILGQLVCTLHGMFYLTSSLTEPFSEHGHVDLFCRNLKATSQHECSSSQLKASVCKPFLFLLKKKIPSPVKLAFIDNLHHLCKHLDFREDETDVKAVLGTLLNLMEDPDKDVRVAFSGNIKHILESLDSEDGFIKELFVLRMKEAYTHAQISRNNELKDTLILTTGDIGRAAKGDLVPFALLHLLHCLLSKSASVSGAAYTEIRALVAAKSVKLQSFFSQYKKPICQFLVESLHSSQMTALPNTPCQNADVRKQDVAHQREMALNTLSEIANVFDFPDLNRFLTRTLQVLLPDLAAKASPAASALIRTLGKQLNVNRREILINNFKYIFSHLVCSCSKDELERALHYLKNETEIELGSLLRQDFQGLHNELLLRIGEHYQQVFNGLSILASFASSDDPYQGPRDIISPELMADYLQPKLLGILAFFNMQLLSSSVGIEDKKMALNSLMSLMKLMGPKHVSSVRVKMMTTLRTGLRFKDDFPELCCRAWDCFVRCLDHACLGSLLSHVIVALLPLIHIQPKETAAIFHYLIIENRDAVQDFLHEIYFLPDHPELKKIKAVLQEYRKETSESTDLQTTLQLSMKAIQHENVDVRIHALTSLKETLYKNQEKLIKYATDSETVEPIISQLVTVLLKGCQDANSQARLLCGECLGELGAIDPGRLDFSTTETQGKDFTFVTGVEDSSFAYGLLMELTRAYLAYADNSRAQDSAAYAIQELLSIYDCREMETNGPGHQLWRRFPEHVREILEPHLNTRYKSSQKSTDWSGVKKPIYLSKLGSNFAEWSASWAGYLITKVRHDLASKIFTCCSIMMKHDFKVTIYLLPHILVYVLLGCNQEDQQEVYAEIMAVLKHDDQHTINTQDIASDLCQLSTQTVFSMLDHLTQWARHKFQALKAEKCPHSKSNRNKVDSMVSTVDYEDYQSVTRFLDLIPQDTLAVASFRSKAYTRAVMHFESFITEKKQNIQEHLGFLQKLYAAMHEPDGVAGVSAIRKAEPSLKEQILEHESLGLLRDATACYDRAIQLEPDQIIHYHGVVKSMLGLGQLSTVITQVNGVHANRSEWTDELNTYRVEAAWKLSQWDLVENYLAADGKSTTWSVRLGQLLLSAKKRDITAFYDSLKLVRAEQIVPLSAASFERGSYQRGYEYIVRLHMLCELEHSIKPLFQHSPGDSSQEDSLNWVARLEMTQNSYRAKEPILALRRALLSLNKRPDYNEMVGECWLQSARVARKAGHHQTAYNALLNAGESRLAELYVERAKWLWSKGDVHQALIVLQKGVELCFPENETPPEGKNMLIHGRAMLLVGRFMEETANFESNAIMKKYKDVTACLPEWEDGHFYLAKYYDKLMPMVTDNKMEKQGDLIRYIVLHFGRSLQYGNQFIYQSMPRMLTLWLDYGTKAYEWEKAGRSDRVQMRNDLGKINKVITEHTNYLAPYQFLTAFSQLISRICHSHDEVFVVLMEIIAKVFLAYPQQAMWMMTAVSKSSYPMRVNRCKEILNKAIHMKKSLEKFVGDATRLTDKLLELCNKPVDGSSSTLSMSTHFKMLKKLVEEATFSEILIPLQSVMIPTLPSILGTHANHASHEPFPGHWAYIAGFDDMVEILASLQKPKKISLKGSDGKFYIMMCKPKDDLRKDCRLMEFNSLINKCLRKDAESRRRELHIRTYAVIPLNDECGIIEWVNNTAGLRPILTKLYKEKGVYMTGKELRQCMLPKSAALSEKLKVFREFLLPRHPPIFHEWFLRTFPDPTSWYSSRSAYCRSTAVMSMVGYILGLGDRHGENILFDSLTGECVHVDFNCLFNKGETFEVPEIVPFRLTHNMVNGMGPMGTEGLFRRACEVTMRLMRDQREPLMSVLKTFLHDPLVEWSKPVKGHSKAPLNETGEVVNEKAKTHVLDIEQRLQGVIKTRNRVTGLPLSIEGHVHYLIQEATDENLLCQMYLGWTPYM
T1 sequence (Q8WXE1 whole entry partner): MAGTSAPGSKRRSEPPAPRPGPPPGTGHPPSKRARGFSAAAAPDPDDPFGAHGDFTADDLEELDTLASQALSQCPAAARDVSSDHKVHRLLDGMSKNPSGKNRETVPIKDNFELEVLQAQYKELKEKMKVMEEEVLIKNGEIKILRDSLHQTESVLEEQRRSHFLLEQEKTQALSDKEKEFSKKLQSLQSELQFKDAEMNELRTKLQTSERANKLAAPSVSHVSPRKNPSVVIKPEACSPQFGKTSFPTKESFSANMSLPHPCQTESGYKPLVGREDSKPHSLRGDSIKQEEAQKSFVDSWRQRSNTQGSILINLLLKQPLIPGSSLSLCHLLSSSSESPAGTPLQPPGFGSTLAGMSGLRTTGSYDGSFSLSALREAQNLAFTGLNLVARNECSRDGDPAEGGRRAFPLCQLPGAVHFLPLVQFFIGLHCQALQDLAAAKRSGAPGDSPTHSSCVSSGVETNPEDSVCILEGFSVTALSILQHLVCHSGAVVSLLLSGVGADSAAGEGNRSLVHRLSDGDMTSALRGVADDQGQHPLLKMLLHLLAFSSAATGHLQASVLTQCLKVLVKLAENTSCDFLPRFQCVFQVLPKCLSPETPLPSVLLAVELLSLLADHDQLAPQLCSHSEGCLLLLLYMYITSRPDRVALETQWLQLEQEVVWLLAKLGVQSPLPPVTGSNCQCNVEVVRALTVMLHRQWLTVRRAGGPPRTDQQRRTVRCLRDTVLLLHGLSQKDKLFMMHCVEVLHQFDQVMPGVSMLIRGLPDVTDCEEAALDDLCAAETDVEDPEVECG

In the case of `Cc1nc(-c2ccn[nH]2)n2nc(N3CCOC[C@H]3C)cc(-c3ccccc3F)c12` [Example 14, (R)-4-(4-(2-fluorophenyl)-5-methyl-7-(1H-pyrazol-5-yl)imidazo[1,5-b]pyridazin-2-yl)-3-methylmorpholine], the IC50 in series [1] (MTT, 4 days) is 32 nM. Further, the IC50 at ATR/ATRIP enzyme amounted to 10 nM. In series [2], this molecule showed an AUC(0-inf) of 78700 ng·h/mL, an AUC(0-t) of 77300 ng·h/mL, a Cmax of 10800 ng/mL and a half-life of 3.75 h. Further, in series [3] (MTT, 4 days), the IC50 was determined as 26.2 nM.

Consider `C[C@@H]1COCCN1c1cc(-c2ccnn2C)c2c(Cl)nc(-c3ccn[nH]3)n2n1` [Example 21, (R)-4-(5-chloro-4-(1-methyl-1H-pyrazol-5-yl)-7-(1H-pyrazol-5-yl)imidazo[1,5-b]pyridazin-2-yl)-3-methylmorpholine], for which, in series [1] (MTT, 4 days), the IC50 was 24.1 nM. Further, the IC50 on ATR/ATRIP enzyme turned out to be 6 nM. Besides, in series [2], the AUC(0-inf) worked out at 42900 ng·h/mL, the AUC(0-t) worked out at 42800 ng·h/mL, the concentration peaked (Cmax) at 7340 ng/mL and the half-life was 2.65 h. For the same molecule, the IC50 in series [3] (MTT, 4 days) amounted to 22.4 nM.

`C[C@@H]1COCCN1c1cc(-c2ccnn2C)c2c(Br)nc(-c3ccn[nH]3)n2n1` [Example 22, (R)-4-(5-bromo-4-(1-methyl-1H-pyrazol-5-yl)-7-(1H-pyrazol-5-yl)imidazo[1,5-b]pyridazin-2-yl)-3-methylmorpholine]: the IC50 in series [1] (MTT, 4 days) is 17.1 nM. For the same molecule, at ATR/ATRIP enzyme, the IC50 worked out at 2 nM. Moreover, in series [2], the AUC(0-inf) stood at 63000 ng·h/mL, the AUC(0-t) worked out at 59000 ng·h/mL, the concentration peaked (Cmax) at 7670 ng/mL and the half-life is 5.88 h. The IC50 in series [3] (MTT, 4 days) stood at 24.1 nM.

Consider `C=Cc1nc(-c2ccn[nH]2)n2nc(N3CCOC[C@H]3C)cc(-c3ccnn3C)c12` [Example 23, (R)-3-methyl-4-(4-(1-methyl-1H-pyrazol-5-yl)-7-(1H-pyrazol-5-yl)-5-vinylimidazo[1,5-b]pyridazin-2-yl)morpholine], for which the IC50 in series [1] (MTT, 4 days) stood at 32 nM. Further, the IC50 on ATR/ATRIP enzyme was found to be 2 nM. Moreover, in series [2], the AUC(0-inf) worked out at 24100 ng·h/mL, the AUC(0-t) came out at 22400 ng·h/mL, the Cmax was determined as 6610 ng/mL and the half-life was 1.66 h. The IC50 in series [3] (MTT, 4 days) amounted to 39.1 nM.

As to `CCc1nc(-c2ccn[nH]2)n2nc(N3CCOC[C@H]3C)cc(-c3ccnn3C)c12` [Example 24, (R)-4-(5-ethyl-4-(1-methyl-1H-pyrazol-5-yl)-7-(1H-pyrazol-5-yl)imidazo[1,5-b]pyridazin-2-yl)-3-methylmorpholine], the IC50 in series [1] was 28 nM. Moreover, the IC50 at ATR/ATRIP enzyme stood at 2 nM. In series [2], this molecule had an AUC(0-inf) of 171000 ng·h/mL, an AUC(0-t) of 162000 ng·h/mL, a Cmax of 15400 ng/mL and a half-life of 5.4 h. The IC50 in series [3] is 38.8 nM.

Take `C=C(C)c1nc(-c2ccn[nH]2)n2nc(N3CCOC[C@H]3C)cc(-c3ccnn3C)c12` [Example 25, (R)-3-Methyl-4-(4-(1-Methyl-1H-pyrazol-5-yl)-5-(prop-1-en-2-yl)-7-(1H-pyrazol-5-yl)imidazo[1,5-b]pyridazin-2-yl)morpholine]: in series [1] (MTT, 4 days), the IC50 was 8.64 nM. Besides, the IC50 on ATR/ATRIP enzyme came out at 1 nM. Moreover, in series [2], the AUC(0-inf) was 70200 ng·h/mL, the AUC(0-t) is 70000 ng·h/mL, the Cmax is 16900 ng/mL and the half-life was 2.56 h. Moreover, the IC50 in series [3] (MTT, 4 days) came to 10.7 nM.

Turning to `CC(C)c1nc(-c2ccn[nH]2)n2nc(N3CCOC[C@H]3C)cc(-c3ccnn3C)c12` [Example 26, (R)-4-(5-isopropyl-4-(1-methyl-1H-pyrazol-5-yl)-7-(1H-pyrazol-5-yl)imidazo[1,5-b]pyridazin-2-yl)-3-methylmorpholine], the IC50 in series [1] (MTT, 4 days) was determined as 22.8 nM. Further, the IC50 at ATR/ATRIP enzyme stood at 1 nM. In series [2], this molecule had an AUC(0-inf) of 49000 ng·h/mL, an AUC(0-t) of 46400 ng·h/mL, a Cmax of 7180 ng/mL and a half-life of 5.82 h. In series [3] (MTT, 4 days), the IC50 amounted to 27.4 nM.
